Experimental data published in patent publication US20100074083A1, “RESIN COMPOSITION AND MOLDED PRODUCT OBTAINED BY MOLDING THE RESIN COMPOSITION” (MITSUI CHEMICALS, INC., priority 2006, published 2010).

Tests used:
Hexane solubility = type: physicochemical; details: stirred 1 hour, naked eye; for Hexane solubility 43 g: 43 g sample in 100 g n-hexane at 23° C.; for Hexane solubility 100 g: 100 g sample in 100 g n-hexane at 23° C.
Description: The samples in an amount as shown in Table 1 were added into 100 g of n-hexane at 23° C., and the mixture was stirred for 1 hour, and thereafter the state was evaluated with naked eyes on the basis of following criteria.
(Criteria for Evaluation)
S; Completely dissolved, C; Dissolved, but insoluble materials remained, and I.S.; Substantially not dissolved.

[1] = Weight reducing temperature at heating (heat resistance, TG-DTA); type: physicochemical; details: heated at 5° C./minutes under nitrogen
Description: The sample was heated at 5° C./minutes under nitrogen, and measured by means of TG8120 type TG-DTA device manufactured by Rigaku Corporation.

Hexane solubility 43 g (Hexane solubility) | Hexane solubility 100 g (Hexane solubility) | Heat resistance 1% by weight reducing temperature [1] | Heat resistance 5% by weight reducing temperature [1] | Hexane solubility 25 g (Hexane solubility; 25 g sample in 100 g n-hexane at 23° C.) | Compound
S | S | 330.1 °C | 378.2 °C | – | CCCCCCCCCCCCN(c1nc(N(CCCCCCCCCCCC)C2CC(C)(C)N(C)C(C)(C)C2)nc(N(CCCCCCCCCCCC)C2CC(C)(C)N(C)C(C)(C)C2)n1)C1CC(C)(C)N(C)C(C)(C)C1 [Exemplary compound 8, N,N′,N″-tridodecyl-N,N′,N″-tris-(1,2,2,6,6-pentamethyl-4-piperidinyl)-[1,3,5]-triazine-2,4,6-triamine]
S | S | 246.2 °C | 377.1 °C | – | CCCCCCCCCCCCN(c1nc(N(CCCCCCCCCCCC)C2CC(C)(C)NC(C)(C)C2)nc(N(CCCCCCCCCCCC)C2CC(C)(C)NC(C)(C)C2)n1)C1CC(C)(C)NC(C)(C)C1 [Exemplary compound 3, N,N′,N″-trilauryl-N,N′,N″-tris(2,2,6,6-tetramethyl-4-piperidin-4-yl)-[1,3,5]-triazine-2,4,6-triamine]
S | – | – | – | – | CCCCNc1nc(N(CCCC)C2CC(C)(C)NC(C)(C)C2)nc(N(CCCC)C2CC(C)(C)NC(C)(C)C2)n1 [Exemplary compound 10, N,N′,N″-tributyl-N,N′-bis(2,2,6,6-tetramethyl-4-piperidyl)-1,3,5-triazine-2,4,6-triamine]
S | S | – | – | – | CCCCCCCCCCCCNc1nc(N(CCCCCCCC)C2CC(C)(C)N(C)C(C)(C)C2)nc(N(CCCCCCCC)C2CC(C)(C)N(C)C(C)(C)C2)n1 [Exemplary compound 13, N-dodecyl-N′,N″-bis(1,2,2,6,6-pentamethyl-4-piperidyl)-N′,N″-dioctyl-1,3,5-triazine-2,4,6-triamine]
S | S | 292.9 °C | 366.7 °C | – | CCCCCCCCCCCCNc1nc(N(CCCCCCCCCCCC)C2CC(C)(C)NC(C)(C)C2)nc(N(CCCCCCCCCCCC)C2CC(C)(C)NC(C)(C)C2)n1 [Exemplary compound 2, N,N′,N″-trilauryl-N,N′-bis-(2,2,6,6-tetramethylpiperidin-4-yl)-[1,3,5]-triazine-2,4,6-triamine]
S | S | – | – | – | CCCCCCCCN(CCCCCCCC)c1nc(N(CCCC)C2CC(C)(C)NC(C)(C)C2)nc(N(CCCC)C2CC(C)(C)NC(C)(C)C2)n1 [Exemplary compound 12, N,N′-dibutyl-N,N′-bis(2,2,6,6-tetramethyl-4-piperidyl)-N″, N″-dioctyl-1,3,5-triazine-2,4,6-triamine]
– | – | 207.4 °C | 248.4 °C | I.S. | CC1(C)CC(OC(=O)CCCCCCCCC(=O)OC2CC(C)(C)NC(C)(C)C2)CC(C)(C)N1 [TINUVIN 770]
S | S | 291.5 °C | 340.1 °C | – | CCCCCCCCN(c1nc(N(CCCCCCCC)C2CC(C)(C)N(C)C(C)(C)C2)nc(N(CCCCCCCC)C2CC(C)(C)N(C)C(C)(C)C2)n1)C1CC(C)(C)N(C)C(C)(C)C1 [Exemplary compound 7, N,N′,N″-trioctyl-N,N′,N″-tris-(1,2,2,6,6-pentamethyl-4-piperidinyl)-[1,3,5]-triazine-2,4,6-triamine]
S | – | – | – | – | CCCCCCCCCCCCNc1nc(N(CCCC)C2CC(C)(C)NC(C)(C)C2)nc(N(CCCC)C2CC(C)(C)NC(C)(C)C2)n1 [Exemplary compound 9, N,N′-dibutyl-N″-dodecyl-N,N′-bis(2,2,6,6-tetramethyl-4-piperidyl)-1,3,5-triazine-2,4,6-triamine]
S | S | 292.7 °C | 357.2 °C | – | CCCCCCCCCCCCN(CCCNc1nc(N(CCCC)C2CC(C)(C)N(C)C(C)(C)C2)nc(N(CCCC)C2CC(C)(C)N(C)C(C)(C)C2)n1)CCCNc1nc(N(CCCC)C2CC(C)(C)N(C)C(C)(C)C2)nc(N(CCCC)C2CC(C)(C)N(C)C(C)(C)C2)n1 [Exemplary compound 4]
S | S | 271.6 °C | 333.4 °C | – | CCCCCCCCCCCCNc1nc(N(CCCC)C2CC(C)(C)N(C)C(C)(C)C2)nc(N(CCCC)C2CC(C)(C)N(C)C(C)(C)C2)n1 [Exemplary compound 1, N,N′-dibutyl-,N″-lauryl-N,N′-bis-(1,2,2,6,6-pentamethyl-4-piperidin-4-yl)-[1,3,5]-triazine-2,4,6-triamine]
S | S | 250.7 °C | 320.2 °C | – | CCCCN(c1nc(N(CCCC)C2CC(C)(C)N(C)C(C)(C)C2)nc(N(CCCC)C2CC(C)(C)N(C)C(C)(C)C2)n1)C1CC(C)(C)N(C)C(C)(C)C1 [Exemplary compound 6, N,N′,N″-tributyl-N,N′,N″-tris-(1,2,2,6,6-pentamethyl-4-piperidinyl)-[1,3,5]-triazine-2,4,6-triamine]
S | S | – | – | – | CCCCCCCCCCCCN(c1nc(NCCCC)nc(N(CCCCCCCCCCCC)C2CC(C)(C)NC(C)(C)C2)n1)C1CC(C)(C)NC(C)(C)C1 [Exemplary compound 14, N-butyl-N′,N″-didodecyl-N′,N″-bis(2,2,6,6-tetramethyl-4-piperidyl)-1,3,5-triazine-2,4,6-triamine]
S | S | 103.3 °C | 188.1 °C | – | CCCCCCCCCCCCNC1CC(C)(C)NC(C)(C)C1 [Exemplary compound 5, N-dodecyl-2,2,6,6-tetramethyl piperidine-4-amine]
S | S | – | – | – | CCCCN(CCCC)c1nc(N(CCCC)C2CC(C)(C)NC(C)(C)C2)nc(N(CCCC)C2CC(C)(C)NC(C)(C)C2)n1 [Exemplary compound 11, N,N′,N″,N″-tetrabutyl-N,N′-bis(2,2,6,6-tetramethyl-4-piperidyl)-1,3,5-triazine-2,4,6-triamine]
